PubChem BioAssay AID2060898 (Molecular Pharmacology Branch, DTP, NCI, 2025)

System: 616215-338-R-J1-PDC complex spheroid viability
Assay: Anticancer human tumor 616215-338-R-J1-PDC patient-derived colon adenocarcinoma cell line growth inhibition [RAS]
Conditions: for IC50: curve of first compound; for viability, T/C: stronger effect = lower value
Outline: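 Agents were tested in combination matrices in half-log decrements from a top concentration at or near clinical Cmax (10 microM if undetermined). Targets were multi-cell spheroids of tumour lines plus HUVEC and MSC stromal cells.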

[1] = second compound 0.000949 µM, first compound 0.0316 µM
[2] = second compound 0.000949 µM, first compound 0.1 µM
[3] = second compound 0.000949 µM, first compound 0.316 µM
[4] = second compound 0.000949 µM, first compound 1 µM
[5] = second compound 0.003 µM, first compound 0.0316 µM
[6] = second compound 0.003 µM, first compound 0.1 µM
[7] = second compound 0.003 µM, first compound 0.316 µM
[8] = second compound 0.003 µM, first compound 1 µM
[9] = second compound 0.00949 µM, first compound 0.0316 µM
[10] = second compound 0.00949 µM, first compound 0.1 µM
[11] = second compound 0.00949 µM, first compound 0.316 µM
[12] = second compound 0.00949 µM, first compound 1 µM
[13] = second compound 0.03 µM, first compound 0.0316 µM
[14] = second compound 0.03 µM, first compound 0.1 µM
[15] = second compound 0.03 µM, first compound 0.316 µM
[16] = second compound 0.03 µM, first compound 1 µM
[17] = second compound 0.0949 µM, first compound 0.0316 µM
[18] = second compound 0.0949 µM, first compound 0.1 µM
[19] = second compound 0.0949 µM, first compound 0.316 µM
[20] = second compound 0.0949 µM, first compound 1 µM
[21] = second compound 0.3 µM, first compound 0.0316 µM
[22] = second compound 0.3 µM, first compound 0.1 µM
[23] = second compound 0.3 µM, first compound 0.316 µM
[24] = second compound 0.3 µM, first compound 1 µM
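Note: spheroids exposed to agents for seven days before viability readout.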
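Throughout, for viability, T/C: 100% = DMSO vehicle control viability.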

For `NC1c2ccccc2OC12CCN(c1cnc3c(N4CCCc5ncccc54)n[nH]c3n1)CC2` (centres undefined) + CCn1c(-c2cccnc2C(C)OC)c2c3cc(ccc31)N1CCOC(CC(NC(=O)C(C(C)C)N(C)C(=O)C3(F)CCN(C(=O)C#CC(C)(C)N(C)C)CC3)C(=O)N3CCCC(N3)C(=O)OCC(C)(C)C2)C1, the IC50 (second compound 0.000949 µM) was 6250 nM, the IC50 (second compound 0.003 µM) was 7000 nM and the IC50 (second compound 0.00949 µM) was over 10000 nM. The IC50 (second compound 0.03 µM) was 2960 nM, the IC50 (second compound 0.0949 µM) was 1700 nM and the IC50 (second compound 0.3 µM) was 564 nM. It also gave a viability, T/C [1] of 121%, a viability, T/C [2] of 92.4% and a viability, T/C [3] of 81.9%. The viability, T/C [4] was 67.8%, the viability, T/C (second compound 0.000949 µM, first compound 3.16 µM) was 61% and the viability, T/C (second compound 0.000949 µM, first compound 10 µM) was 43.1%. It also gave a viability, T/C [5] of 119%, a viability, T/C [6] of 94.7% and a viability, T/C [7] of 75.5%. The viability, T/C [8] was 64.8%, the viability, T/C (second compound 0.003 µM, first compound 3.16 µM) was 64.2% and the viability, T/C (second compound 0.003 µM, first compound 10 µM) was 43%. The viability, T/C [9] was 113%, the viability, T/C [10] was 85.2% and the viability, T/C [11] was 72.7%. For the same compound, the viability, T/C [12] was 59%, the viability, T/C (second compound 0.00949 µM, first compound 3.16 µM) was 64.6% and the viability, T/C (second compound 0.00949 µM, first compound 10 µM) was 49.5%. The viability, T/C [13] was 106%, the viability, T/C [14] was 85.1% and the viability, T/C [15] was 76.9%. It also gave a viability, T/C [16] of 56.4%, a viability, T/C (second compound 0.03 µM, first compound 3.16 µM) of 56.7% and a viability, T/C (second compound 0.03 µM, first compound 10 µM) of 35%. For the same compound, the viability, T/C [17] was 105%, the viability, T/C [18] was 75.7% and the viability, T/C [19] was 59.4%. It also gave a viability, T/C [20] of 56.3%, a viability, T/C (second compound 0.0949 µM, first compound 3.16 µM) of 51.8% and a viability, T/C (second compound 0.0949 µM, first compound 10 µM) of 38.5%. The viability, T/C [21] was 73.4%, the viability, T/C [22] was 58% and the viability, T/C [23] was 56.2%. It also gave a viability, T/C [24] of 46.6%, a viability, T/C (second compound 0.3 µM, first compound 3.16 µM) of 42.8% and a viability, T/C (second compound 0.3 µM, first compound 10 µM) of 41%.
With `Nc1ccn(C2OC(CO)C(O)C2(F)F)c(=O)n1` (centres undefined) + CCn1c(-c2cccnc2C(C)OC)c2c3cc(ccc31)N1CCOC(CC(NC(=O)C(C(C)C)N(C)C(=O)C3(F)CCN(C(=O)C#CC(C)(C)N(C)C)CC3)C(=O)N3CCCC(N3)C(=O)OCC(C)(C)C2)C1 the IC50 (second compound 0.000949 µM) was 15.2 nM, the IC50 (second compound 0.003 µM) was 11.2 nM and the IC50 (second compound 0.00949 µM) was 14.6 nM. It also gave an IC50 (second compound 0.03 µM) of 11.5 nM, an IC50 (second compound 0.0949 µM) of 10.1 nM and an IC50 (second compound 0.3 µM) of 9.55 nM. The viability, T/C (second compound 0.000949 µM, first compound 0.00316 µM) was 105%, the viability, T/C (second compound 0.000949 µM, first compound 0.01 µM) was 62.8% and the viability, T/C [1] was 28%. It also gave a viability, T/C [2] of 13.1%, a viability, T/C [3] of 16.3% and a viability, T/C [4] of 14.2%. It also gave a viability, T/C (second compound 0.003 µM, first compound 0.00316 µM) of 114%, a viability, T/C (second compound 0.003 µM, first compound 0.01 µM) of 51.5% and a viability, T/C [5] of 29%. For the same compound, the viability, T/C [6] was 14.6%, the viability, T/C [7] was 11.6% and the viability, T/C [8] was 12.4%. For the same compound, the viability, T/C (second compound 0.00949 µM, first compound 0.00316 µM) was 108%, the viability, T/C (second compound 0.00949 µM, first compound 0.01 µM) was 61.2% and the viability, T/C [9] was 27.5%. For the same compound, the viability, T/C [10] was 14.7%, the viability, T/C [11] was 14.1% and the viability, T/C [12] was 13.2%. The viability, T/C (second compound 0.03 µM, first compound 0.00316 µM) was 114%, the viability, T/C (second compound 0.03 µM, first compound 0.01 µM) was 53.9% and the viability, T/C [13] was 22.2%. For the same compound, the viability, T/C [14] was 14.9%, the viability, T/C [15] was 14.6% and the viability, T/C [16] was 13.5%. For the same compound, the viability, T/C (second compound 0.0949 µM, first compound 0.00316 µM) was 95.7%, the viability, T/C (second compound 0.0949 µM, first compound 0.01 µM) was 50.1% and the viability, T/C [17] was 22.9%. For the same compound, the viability, T/C [18] was 14.3%, the viability, T/C [19] was 15.2% and the viability, T/C [20] was 12.6%. The viability, T/C (second compound 0.3 µM, first compound 0.00316 µM) was 69.7%, the viability, T/C (second compound 0.3 µM, first compound 0.01 µM) was 48.9% and the viability, T/C [21] was 27.8%. The viability, T/C [22] was 16.6%, the viability, T/C [23] was 17% and the viability, T/C [24] was 17%.
